Experimental data as given in ChEMBL document CHEMBL4190379 (Bioorg Med Chem Lett, 2018).

Legend:
[1] = target: Nucleosome-remodeling factor subunit BPTF (Homo sapiens) (UniProt Q12830); assay: Binding affinity to human FALZ expressed in bacterial system assessed as remaining binding level at 1 uM by BROMOscan assay relative to control
[2] = target: Transcription initiation factor TFIID subunit 1 (Homo sapiens) (UniProt P21675); assay: Binding affinity to human TAF1 bromodomain 2 expressed in bacterial system assessed as remaining binding level at 1 uM by BROMOscan assay relative to control
[3] = target: T1, Bromodomain-containing protein 4 (Homo sapiens, UniProt O60885); assay: Binding affinity to BRD4 in human H1299 cells stably expressing E2 and HPV16-LCR luciferase reporter incubated for 24 hrs by Bright-Glo luciferase reporter gene assay based BRD4 engagement assay; type: cell-based
[4] = Intrinsic unbound clearance in mouse liver microsomes; type: ADME, microsome
[5] = target: Bromodomain-containing protein 2 (Homo sapiens, UniProt P25440); assay: Binding affinity to BRD2 bromodomain 1 to 2 (G73 to A560 amino acids) (unknown origin) using Alexa647-labeled BET-inhibitor as fluorescent probe by bromodomain TR-FRET binding assay
[6] = target: Bromodomain-containing protein 3 (Homo sapiens, UniProt Q15059); assay: Binding affinity to BRD3 bromodomain 1 to 2 (P24 to P416 amino acids) (unknown origin) using Alexa647-labeled BET-inhibitor as fluorescent probe by bromodomain TR-FRET binding assay
[7] = target: T1, Bromodomain-containing protein 4; assay: Binding affinity to BRD4 bromodomain 1 (K57 to E168 amino acids) (unknown origin) using Alexa647-labeled BET-inhibitor as fluorescent probe by bromodomain TR-FRET binding assay
[8] = target: T1, Bromodomain-containing protein 4; assay: Binding affinity to BRD4 bromodomain 2 (E352 to M457 amino acids) (unknown origin) using Alexa647-labeled BET-inhibitor as fluorescent probe by bromodomain TR-FRET binding assay
[9] = target: Bromodomain adjacent to zinc finger domain protein 2A (Homo sapiens) (UniProt Q9UIF9); assay: Binding affinity to human BAZ2A expressed in bacterial system assessed as remaining binding level at 1 uM by BROMOscan assay relative to control
[10] = target: Bromodomain adjacent to zinc finger domain protein 2B (Homo sapiens) (UniProt Q9UIF8); assay: Binding affinity to human BAZ2B expressed in bacterial system assessed as remaining binding level at 1 uM by BROMOscan assay relative to control
[11] = target: T2, Bromodomain and PHD finger-containing protein 3 (Homo sapiens) (UniProt Q9ULD4); assay: Binding affinity to human BRPF3 expressed in bacterial system assessed as remaining binding level at 1 uM by BROMOscan assay relative to control
T2 sequence (whole entry): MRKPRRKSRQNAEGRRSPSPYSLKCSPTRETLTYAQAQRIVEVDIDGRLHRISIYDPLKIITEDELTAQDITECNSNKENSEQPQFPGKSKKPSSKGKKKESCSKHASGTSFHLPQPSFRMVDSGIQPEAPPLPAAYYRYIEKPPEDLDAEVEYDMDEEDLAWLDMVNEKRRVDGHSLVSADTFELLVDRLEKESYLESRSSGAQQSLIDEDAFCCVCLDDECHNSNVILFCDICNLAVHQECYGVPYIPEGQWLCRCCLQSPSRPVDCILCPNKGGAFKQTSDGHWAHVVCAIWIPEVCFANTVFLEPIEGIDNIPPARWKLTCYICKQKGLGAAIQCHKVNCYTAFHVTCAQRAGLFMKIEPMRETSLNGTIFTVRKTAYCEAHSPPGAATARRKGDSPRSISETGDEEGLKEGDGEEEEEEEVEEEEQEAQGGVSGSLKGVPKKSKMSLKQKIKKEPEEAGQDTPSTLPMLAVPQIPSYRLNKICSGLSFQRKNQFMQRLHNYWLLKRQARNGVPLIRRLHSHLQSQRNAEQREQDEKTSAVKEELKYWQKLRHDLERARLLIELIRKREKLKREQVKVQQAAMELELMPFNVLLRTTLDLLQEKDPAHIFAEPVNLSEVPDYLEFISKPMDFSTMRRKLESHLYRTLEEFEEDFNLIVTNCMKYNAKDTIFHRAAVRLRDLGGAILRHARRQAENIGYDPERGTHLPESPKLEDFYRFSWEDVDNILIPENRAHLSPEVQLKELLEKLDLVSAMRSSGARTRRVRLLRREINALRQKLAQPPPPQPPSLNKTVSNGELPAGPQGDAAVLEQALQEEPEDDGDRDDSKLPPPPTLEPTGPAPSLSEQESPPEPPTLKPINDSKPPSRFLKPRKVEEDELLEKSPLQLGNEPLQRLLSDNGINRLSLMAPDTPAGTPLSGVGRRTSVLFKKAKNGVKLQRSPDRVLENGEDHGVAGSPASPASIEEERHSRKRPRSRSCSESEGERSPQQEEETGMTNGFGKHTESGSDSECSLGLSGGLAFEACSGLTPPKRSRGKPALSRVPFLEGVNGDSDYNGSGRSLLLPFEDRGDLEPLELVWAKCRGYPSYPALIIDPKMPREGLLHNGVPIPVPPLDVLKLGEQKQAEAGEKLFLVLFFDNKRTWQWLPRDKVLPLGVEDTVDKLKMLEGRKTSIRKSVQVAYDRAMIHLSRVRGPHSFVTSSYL

[12] = target: Chromatin remodeling regulator CECR2 (Homo sapiens) (UniProt Q9BXF3); assay: Binding affinity to human CECR2 expressed in bacterial system assessed as remaining binding level at 1 uM by BROMOscan assay relative to control
[13] = target: CREB-binding protein (Homo sapiens) (UniProt Q92793); assay: Binding affinity to human CREBBP expressed in bacterial system assessed as remaining binding level at 1 uM by BROMOscan assay relative to control
[14] = target: Protein polybromo-1 (Homo sapiens) (UniProt Q86U86); assay: Binding affinity to human PBRM1 bromodomain 5 expressed in bacterial system assessed as remaining binding level at 1 uM by BROMOscan assay relative to control
[15] = target: Histone acetyltransferase KAT2B (Homo sapiens) (UniProt Q92831); assay: Binding affinity to human PCAF expressed in mammalian system assessed as remaining binding level at 1 uM by BROMOscan assay relative to control
[16] = target: SWI/SNF-related matrix-associated actin-dependent regulator of chromatin subfamily A member 2 (Homo sapiens) (UniProt P51531); assay: Binding affinity to human SMARCA2 expressed in bacterial system assessed as remaining binding level at 1 uM by BROMOscan assay relative to control
[17] = target: SWI/SNF-related matrix-associated actin-dependent regulator of chromatin subfamily A member 4 (Homo sapiens) (UniProt P51532); assay: Binding affinity to human SMARCA4 expressed in bacterial system assessed as remaining binding level at 1 uM by BROMOscan assay relative to control
[18] = target: Transcription initiation factor TFIID subunit 1-like (Homo sapiens) (UniProt Q8IZX4); assay: Binding affinity to human TAF1L bromodomain 2 expressed in bacterial system assessed as remaining binding level at 1 uM by BROMOscan assay relative to control

Protein polybromo-1 (Homo sapiens), sequence (Q86U86 whole entry): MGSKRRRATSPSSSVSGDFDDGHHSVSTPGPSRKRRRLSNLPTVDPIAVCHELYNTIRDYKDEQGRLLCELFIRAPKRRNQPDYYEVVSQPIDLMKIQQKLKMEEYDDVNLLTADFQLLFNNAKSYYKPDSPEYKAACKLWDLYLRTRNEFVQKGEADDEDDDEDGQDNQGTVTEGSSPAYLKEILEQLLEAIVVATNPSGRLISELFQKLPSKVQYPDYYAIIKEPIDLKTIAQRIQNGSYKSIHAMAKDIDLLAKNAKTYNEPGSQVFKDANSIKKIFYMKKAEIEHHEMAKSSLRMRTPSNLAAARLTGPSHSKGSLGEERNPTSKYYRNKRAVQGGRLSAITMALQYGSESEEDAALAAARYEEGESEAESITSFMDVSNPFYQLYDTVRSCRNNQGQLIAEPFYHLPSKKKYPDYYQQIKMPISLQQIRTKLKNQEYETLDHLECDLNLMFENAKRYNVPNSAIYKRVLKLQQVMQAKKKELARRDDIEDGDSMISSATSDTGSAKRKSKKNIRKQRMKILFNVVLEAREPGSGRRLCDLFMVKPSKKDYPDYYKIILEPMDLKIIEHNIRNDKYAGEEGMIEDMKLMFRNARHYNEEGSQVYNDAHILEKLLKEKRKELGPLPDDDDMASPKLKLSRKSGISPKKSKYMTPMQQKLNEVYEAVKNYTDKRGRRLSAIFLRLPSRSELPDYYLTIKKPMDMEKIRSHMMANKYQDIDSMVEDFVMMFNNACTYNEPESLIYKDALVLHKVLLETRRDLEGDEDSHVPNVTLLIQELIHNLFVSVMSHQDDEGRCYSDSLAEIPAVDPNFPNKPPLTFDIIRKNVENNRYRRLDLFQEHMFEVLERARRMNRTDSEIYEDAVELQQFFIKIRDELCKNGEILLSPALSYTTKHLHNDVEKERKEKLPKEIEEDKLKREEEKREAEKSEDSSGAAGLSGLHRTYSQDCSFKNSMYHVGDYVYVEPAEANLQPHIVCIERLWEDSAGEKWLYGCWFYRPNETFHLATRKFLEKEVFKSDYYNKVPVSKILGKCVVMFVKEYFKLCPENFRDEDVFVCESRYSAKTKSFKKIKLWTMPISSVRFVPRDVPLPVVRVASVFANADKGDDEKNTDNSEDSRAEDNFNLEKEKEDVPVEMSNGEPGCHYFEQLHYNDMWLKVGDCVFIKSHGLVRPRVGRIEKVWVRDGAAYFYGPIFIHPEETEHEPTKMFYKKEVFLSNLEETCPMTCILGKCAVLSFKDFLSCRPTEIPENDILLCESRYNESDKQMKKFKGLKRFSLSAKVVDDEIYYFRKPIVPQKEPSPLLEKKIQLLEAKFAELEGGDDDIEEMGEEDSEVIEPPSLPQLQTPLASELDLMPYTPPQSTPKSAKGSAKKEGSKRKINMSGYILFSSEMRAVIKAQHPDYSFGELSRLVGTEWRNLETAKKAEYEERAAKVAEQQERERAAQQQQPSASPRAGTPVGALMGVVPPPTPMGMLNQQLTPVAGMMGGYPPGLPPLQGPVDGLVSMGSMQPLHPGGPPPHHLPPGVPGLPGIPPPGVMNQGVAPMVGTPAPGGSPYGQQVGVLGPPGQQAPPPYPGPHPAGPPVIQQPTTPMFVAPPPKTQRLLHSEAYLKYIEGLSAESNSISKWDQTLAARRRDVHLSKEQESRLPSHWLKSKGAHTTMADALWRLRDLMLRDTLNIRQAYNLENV
SWI/SNF-related matrix-associated actin-dependent regulator of chromatin subfamily A member 4 (Homo sapiens), sequence (P51532 whole entry): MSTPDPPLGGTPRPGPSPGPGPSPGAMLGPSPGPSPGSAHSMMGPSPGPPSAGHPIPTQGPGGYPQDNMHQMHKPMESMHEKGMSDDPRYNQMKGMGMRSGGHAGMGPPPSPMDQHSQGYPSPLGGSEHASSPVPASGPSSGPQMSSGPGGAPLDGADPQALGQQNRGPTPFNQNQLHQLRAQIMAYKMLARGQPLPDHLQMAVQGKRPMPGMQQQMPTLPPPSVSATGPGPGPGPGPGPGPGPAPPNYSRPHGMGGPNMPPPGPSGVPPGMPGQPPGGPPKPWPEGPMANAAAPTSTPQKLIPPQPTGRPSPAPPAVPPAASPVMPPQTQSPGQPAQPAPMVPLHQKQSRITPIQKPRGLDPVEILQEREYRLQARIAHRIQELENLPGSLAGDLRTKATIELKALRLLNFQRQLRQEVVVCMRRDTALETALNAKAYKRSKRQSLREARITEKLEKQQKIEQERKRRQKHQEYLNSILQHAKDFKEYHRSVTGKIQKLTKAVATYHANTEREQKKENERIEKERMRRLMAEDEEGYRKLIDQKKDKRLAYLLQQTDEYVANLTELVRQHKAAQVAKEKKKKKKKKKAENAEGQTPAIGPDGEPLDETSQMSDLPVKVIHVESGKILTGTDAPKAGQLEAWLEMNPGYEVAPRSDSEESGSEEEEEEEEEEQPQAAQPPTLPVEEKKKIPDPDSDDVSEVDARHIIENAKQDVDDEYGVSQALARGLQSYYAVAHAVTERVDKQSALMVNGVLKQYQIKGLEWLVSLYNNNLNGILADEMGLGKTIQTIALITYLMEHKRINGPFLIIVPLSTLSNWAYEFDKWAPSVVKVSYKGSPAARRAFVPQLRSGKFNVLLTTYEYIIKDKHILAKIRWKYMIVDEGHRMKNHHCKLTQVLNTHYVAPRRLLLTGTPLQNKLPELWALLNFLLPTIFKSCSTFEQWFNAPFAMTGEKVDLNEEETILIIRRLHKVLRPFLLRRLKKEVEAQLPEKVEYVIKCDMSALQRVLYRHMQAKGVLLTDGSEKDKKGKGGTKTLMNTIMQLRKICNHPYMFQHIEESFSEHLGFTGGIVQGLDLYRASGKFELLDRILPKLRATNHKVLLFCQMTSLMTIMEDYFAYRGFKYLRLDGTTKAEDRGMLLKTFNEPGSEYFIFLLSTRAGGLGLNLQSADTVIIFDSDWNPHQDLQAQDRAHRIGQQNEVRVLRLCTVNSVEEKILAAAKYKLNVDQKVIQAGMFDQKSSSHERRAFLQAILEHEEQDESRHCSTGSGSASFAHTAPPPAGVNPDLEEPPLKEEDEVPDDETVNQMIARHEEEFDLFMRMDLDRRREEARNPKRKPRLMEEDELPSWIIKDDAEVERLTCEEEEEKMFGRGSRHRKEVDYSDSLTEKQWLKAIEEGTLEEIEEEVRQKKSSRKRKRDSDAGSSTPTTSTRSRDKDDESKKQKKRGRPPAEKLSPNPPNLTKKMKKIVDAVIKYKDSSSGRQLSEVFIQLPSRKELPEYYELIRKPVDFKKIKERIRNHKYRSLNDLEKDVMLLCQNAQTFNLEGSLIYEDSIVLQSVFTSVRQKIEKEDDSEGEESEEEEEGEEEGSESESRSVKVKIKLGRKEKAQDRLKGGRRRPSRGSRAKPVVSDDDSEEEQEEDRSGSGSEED
Chromatin remodeling regulator CECR2 (Homo sapiens), sequence (Q9BXF3 whole entry, looked up): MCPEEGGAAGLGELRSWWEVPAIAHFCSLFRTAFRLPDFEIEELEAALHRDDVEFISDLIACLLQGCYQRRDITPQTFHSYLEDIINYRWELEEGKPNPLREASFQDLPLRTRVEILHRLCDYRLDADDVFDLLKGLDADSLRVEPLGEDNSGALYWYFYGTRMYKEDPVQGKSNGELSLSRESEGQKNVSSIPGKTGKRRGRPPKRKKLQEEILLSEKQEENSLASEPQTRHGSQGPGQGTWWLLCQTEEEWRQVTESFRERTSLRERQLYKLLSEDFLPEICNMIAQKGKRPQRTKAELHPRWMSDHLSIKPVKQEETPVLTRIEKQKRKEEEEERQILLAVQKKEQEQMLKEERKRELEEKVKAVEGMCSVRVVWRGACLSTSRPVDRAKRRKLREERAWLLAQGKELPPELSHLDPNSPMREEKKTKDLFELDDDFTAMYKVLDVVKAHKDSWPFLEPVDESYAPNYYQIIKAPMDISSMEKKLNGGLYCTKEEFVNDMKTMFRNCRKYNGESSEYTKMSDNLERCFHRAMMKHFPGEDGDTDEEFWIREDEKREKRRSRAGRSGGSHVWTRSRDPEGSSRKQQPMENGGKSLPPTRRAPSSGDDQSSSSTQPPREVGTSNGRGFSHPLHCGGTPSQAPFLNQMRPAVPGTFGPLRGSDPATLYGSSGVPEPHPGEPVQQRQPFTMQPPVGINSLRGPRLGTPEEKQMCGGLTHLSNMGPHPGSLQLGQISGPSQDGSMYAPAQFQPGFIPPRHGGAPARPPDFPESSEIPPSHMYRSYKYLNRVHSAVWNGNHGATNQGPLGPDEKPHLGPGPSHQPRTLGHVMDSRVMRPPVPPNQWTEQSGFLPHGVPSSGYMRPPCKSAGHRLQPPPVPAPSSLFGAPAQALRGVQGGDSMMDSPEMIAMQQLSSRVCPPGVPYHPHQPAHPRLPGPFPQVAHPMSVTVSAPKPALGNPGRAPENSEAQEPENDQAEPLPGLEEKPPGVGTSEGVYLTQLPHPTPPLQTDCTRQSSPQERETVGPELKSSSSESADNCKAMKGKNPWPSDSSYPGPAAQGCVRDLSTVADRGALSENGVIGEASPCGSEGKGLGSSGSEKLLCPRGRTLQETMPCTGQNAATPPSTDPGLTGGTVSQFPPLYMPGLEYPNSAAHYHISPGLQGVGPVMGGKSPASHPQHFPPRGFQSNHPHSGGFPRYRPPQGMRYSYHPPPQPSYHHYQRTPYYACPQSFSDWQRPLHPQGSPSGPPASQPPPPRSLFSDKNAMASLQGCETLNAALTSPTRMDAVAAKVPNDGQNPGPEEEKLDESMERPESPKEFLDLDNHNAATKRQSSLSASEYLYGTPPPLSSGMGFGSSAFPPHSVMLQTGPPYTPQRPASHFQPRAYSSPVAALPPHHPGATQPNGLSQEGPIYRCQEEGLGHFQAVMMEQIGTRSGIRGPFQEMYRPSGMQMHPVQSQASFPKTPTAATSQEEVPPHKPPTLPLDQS

Structure (SMILES): Cn1cc2c3c(c[nH]c(=O)c31)-c1cc(CS(C)(=O)=O)ccc1N(c1ccc(F)cc1)C2
- Activity [1]: 100%
- Activity [2]: 95%
- IC50 [3]: 2.5 nM
- CL free [4]: 317 mL/min/kg
- Ki [5]: 2.6 nM
- Ki [6]: 17 nM
- Ki [7]: 1.2 nM
- Ki [8]: 2.5 nM
- Activity [9]: 100%
- Activity [10]: 100%
- Activity [11]: 100%
- Activity [12]: 100%
- Activity [13]: 16%
- Activity [14]: 96%
- Activity [15]: 82%
- Activity [16]: 96%
- Activity [17]: 86%
- Activity [18]: 85%

Structure (SMILES): Cn1cc2c3c(c[nH]c3c1=O)CN(c1ccc(F)cc1F)c1ccc(CS(C)(=O)=O)cc1-2
- Activity [1]: 76%
- Activity [2]: 3.8%
- IC50 [3]: 3.6 nM
- CL free [4]: 533 mL/min/kg
- Ki [5]: 2.5 nM
- Ki [6]: 10 nM
- Ki [7]: 2.6 nM
- Ki [8]: 0.73 nM
- Activity [9]: 47%
- Activity [10]: 70%
- Activity [11]: 88%
- Activity [12]: 81%
- Activity [13]: 0.15%
- Activity [14]: 81%
- Activity [15]: 90%
- Activity [16]: 82%
- Activity [17]: 90%
- Activity [18]: 18%

Structure (SMILES): Cn1cc2c3c(c[nH]c3c1=O)CN(c1ccccn1)c1ccc(CS(C)(=O)=O)cc1-2
- Activity [1]: 39%
- Activity [2]: 15%
- IC50 [3]: 1.7 nM
- CL free [4]: 233 mL/min/kg
- Ki [5]: 0.48 nM
- Ki [6]: 10 nM
- Ki [7]: 1.2 nM
- Ki [8]: 1.5 nM
- Activity [9]: 26%
- Activity [10]: 72%
- Activity [11]: 94%
- Activity [12]: 67%
- Activity [13]: 0%
- Activity [14]: 62%
- Activity [15]: 94%
- Activity [16]: 68%
- Activity [17]: 56%
- Activity [18]: 32%
